Experiment [1] concerns Ocular melanoma VUP. Briefly: Cytotoxicity on ocular melanoma VUP. It is filed as cell-based, human. The procedure:
(§1) The MTT test was chosen for screening the effectivity of the respective compounds. The test is based on reaction of a tetrazolium salt with respirating mitochondria of living cells. The resulted insoluble formazan is solubilized and its amount is determined on a microplate reader. […] Inhibition constant (IC50) represents such a concentration of a substance which causes 50% supression of growth of a cell culture. This constant has been determined from a graph of dependence of MTT value (mitochondrial activity of cells) on the concentration of tested substance. A GraphPad Prism programme was used for determination of the constant from the measured values, whereby Boltzman sigmoid was used for constructing a curve from single experimental points.

Experiment [2] deals with lymfoblastic leucaemia line CEMt. The experiment can be described thus: MTT test, human tumor line CEMt. It is filed as cell-based. The conditions noted are these: read-out: Inhibition constant IC50. The procedure: as §1
Comparation experiments were performed on lymfoblastic leucaemia line CEMt. The MTT test was used for evaluation of cytotoxic effect.
Vitality of cells was determined by a standard spectrophotometric MTT test based on reduction of 3-(4,5-dimethylthiazol-2-yl)-2,5-diphenyltetrazolium bromide by vital cells under formation of a formazane.
(Formazan colour is commonly taken as a measure of viable cells.)

Experiment [3] relates to lines P 815 (mastocytoma) and L 1210 (lymphocyte leucaernia line). The experiment can be described thus: MTT test, mice tumor lines (line not stated for the carboplatin value). It is filed as cell-based. The procedure: (§2) Cytostatic activity of compounds of the present invention has been tested in vitro on tumor lines. The MTT test was chosen for screening the effectivity of the respective compounds. The test is based on reaction of a tetrazolium salt with respirating mitochondria of living cells. The resulted insoluble formazan is solubilized and its amount is determined on a microplate reader. This method is being used as a standard one for evaluation of cytostatic effect of pharmaceutically active compounds (Tim Mosmann, Rapid colorimetric assay for cellular growth and survival, Application to proliferation and cytotoxicity assays, Journal of Immunological Methods, 65 (1983), 55-63). Inhibition constant (IC50) represents such a concentration of a substance which causes 50% supression of growth of a cell culture. This constant has been determined from a graph of dependence of MTT value (mitochondrial activity of cells) on the concentration of tested substance. A GraphPad Prism programme was used for determination of the constant from the measured values, whereby Boltzman sigmoid was used for constructing a curve from single experimental points. Chosen cell lines are standard lines used for routine screening of cytostatic effect of pharmacologically active compounds.
(§3) Within this example, lines P 815 (mastocytoma) and L 1210 (lymphocyte leucaernia line) were tested.

The subject of experiment [4] is L 1210 (lymphocyte leucaernia line). Briefly: MTT test, mice tumor line L 1210. It is filed as cell-based. The settings on record: L-1210 line. The procedure: as §2, §3
For experiment [5], the system named is P 815 (mastocytoma). Briefly: MTT test, mice tumor line P 815. It is filed as cell-based. The settings on record: P-815 line. The procedure: as §2, §3
Experiment [6] has as its system solid mammal adenocarcinoma MC 2111. Briefly: Antitumor activity in vivo, single i.v. dose, survival. Further details: species or system Mice female DBA/1. The procedure:
Mice female DBA/1 of body mass 22.9-25.8 g were used in this experiment. Tumors were developed by s.c. inoculation of 0.2 ml of a tumor homogenate diluted in 1:1 volume ratio with an isotonic glucose solution. Tested compounds were applied in a form of an isotonic water solution prepared immediately before application by dissolution of corresponding lyophilised product in water for injections and further by dilution with isotonic sodium chloride solution ad hoc according to the need, in volumes of 0.1-0.4 ml per 20 g of body mass of an animal, as apparent from the following table.

For orientation: IC50 means the midpoint of a concentration-inhibition curve. Turning to `N.N.O=C([O-])C1(C(=O)[O-])CCC1.[Pt+2]` [Carboplatin, cis-diammine-/1,1-cyclobutanedicarboxylato/platinum(II) complex], the IC50 in experiment [1] is 95 µM; in experiment [2], 30.4 µM; in experiment [3] (line not specified, both in a free form or as a complex with cyclodextrin) it was 105 µM. Besides, in experiment [3] (IC50 comparison), the “activity relative to LA-9” value is reported as “approximately hundred times less active”.
Regarding `N.N.[Cl][Pt][Cl]` [Cisplatin, cis-diammine-dichloroplatinum(II) complex], in experiment [2], the IC50 was 1.9 µM.
On to “cis-(1-adamantylamine) amminedichloroplatinum (II) [LA-9]”, for which the IC50 in experiment [4] is 1.5 µM; in experiment [1], 9 µM; in experiment [5], 1.1 µM; in experiment [2] it was 0.36 µM. The “sensibility in comparison with Carboplatin” value in experiment [1] (IC50 comparison) was “approximately ten times higher sensibility”. Moreover, in experiment [6] (12 mg/kg single i.v. dose), the “Survivors (% of control)” value was 410 % of control. Moreover, the Optimum dosage in experiment [6] (animals used in the tests) lay within 13 to 16 mg/kg.
Take `O=C1[O][Pt]2([NH][C@@H]3CCCC[C@H]3[NH]2)[O]C1=O` [Oxaliplatin]: the IC50 in experiment [2] stood at 4.8 µM.
